The values below come from ChEMBL document CHEMBL1128030, “Synthesis and biological evaluation of a library containing potentially 1600 amides / esters. A strategy for rapid compound generation and screening” (Bioorg Med Chem Lett, 1994).

SMILES strings stand for the structures.

One assay addresses T1, Neuromedin-K receptor (Homo sapiens, UniProt P29371).
T1 sequence (P29371 whole entry): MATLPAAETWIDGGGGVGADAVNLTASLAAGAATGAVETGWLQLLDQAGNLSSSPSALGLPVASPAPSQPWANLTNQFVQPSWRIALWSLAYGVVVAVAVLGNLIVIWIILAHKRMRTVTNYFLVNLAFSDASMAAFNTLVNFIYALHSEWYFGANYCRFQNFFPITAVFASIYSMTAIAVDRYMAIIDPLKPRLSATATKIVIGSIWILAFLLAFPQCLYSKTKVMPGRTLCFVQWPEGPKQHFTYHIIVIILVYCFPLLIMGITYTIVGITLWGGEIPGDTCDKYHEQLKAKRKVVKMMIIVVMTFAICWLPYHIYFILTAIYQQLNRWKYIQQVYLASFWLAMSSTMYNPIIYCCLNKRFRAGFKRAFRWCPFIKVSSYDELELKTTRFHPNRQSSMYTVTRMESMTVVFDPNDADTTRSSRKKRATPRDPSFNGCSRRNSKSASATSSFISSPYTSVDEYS
Description: Compound was tested for its ability to displace [3H]senktide binding to human Tachykinin receptor 3 expressed in CHO cells. Format: cell-based.

A further assay has as its target T2, Interstitial collagenase (Homo sapiens, UniProt P03956).
T2 sequence (P03956 whole entry): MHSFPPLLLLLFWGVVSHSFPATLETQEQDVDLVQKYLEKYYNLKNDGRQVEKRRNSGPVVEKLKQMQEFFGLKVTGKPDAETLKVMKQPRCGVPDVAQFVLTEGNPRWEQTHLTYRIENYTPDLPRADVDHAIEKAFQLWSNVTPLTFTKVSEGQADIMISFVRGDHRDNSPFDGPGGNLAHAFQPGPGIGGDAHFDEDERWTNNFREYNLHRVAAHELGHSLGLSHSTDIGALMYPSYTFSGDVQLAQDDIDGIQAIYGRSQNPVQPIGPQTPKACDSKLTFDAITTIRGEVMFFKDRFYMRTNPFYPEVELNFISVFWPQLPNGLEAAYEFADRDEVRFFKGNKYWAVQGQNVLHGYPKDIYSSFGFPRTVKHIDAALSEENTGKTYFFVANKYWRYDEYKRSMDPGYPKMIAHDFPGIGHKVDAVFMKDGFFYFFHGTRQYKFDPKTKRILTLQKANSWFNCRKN
The assay is described as follows: Inhibition of human recombinant MMP-I.

Regarding `O=C(/C=C/c1ccccc1)N1CCN(C(c2ccccc2)c2ccc(Cl)cc2)CC1` (configuration not stated), on Neuromedin-K receptor, the IC50 (usually the midpoint of a concentration-inhibition curve) came out at 60 µM.

Turning to `N#Cc1ccc(C(=O)Nc2ccccc2N2CCCCC2)cc1`, the IC50 at Interstitial collagenase was 55 µM.
